Source: ChEMBL document CHEMBL1147087, “An antidepressant that extends lifespan in adult Caenorhabditis elegans” (Nature, 2007)

Legend:
Format in all cases: functional
Caenorhabditis elegans [1] = test: Effect on life span of Caenorhabditis elegans at 100 uM
Caenorhabditis elegans [2] = test: Effect on life span of Caenorhabditis elegans at 50 uM
Caenorhabditis elegans [3] = test: Increase in life span of Caenorhabditis elegans
Caenorhabditis elegans [4] = test: Effect on life span of Caenorhabditis elegans at 200 uM
Caenorhabditis elegans [5] = test: (§1) Effect on life span of Caenorhabditis elegans N2 treated on day 5 at 50 uM
Caenorhabditis elegans [6] = test: Effect on life span of Caenorhabditis elegans N2 treated on day 1 at 50 uM
Caenorhabditis elegans [7] = test: Effect on life span of Caenorhabditis elegans daf16(mu86) mutant at 50 uM
Caenorhabditis elegans [8] = test: Effect on life span of Caenorhabditis elegans ser4(ok512) mutant at 50 uM
Caenorhabditis elegans [9] = test: Effect on life span of Caenorhabditis elegans ser7(tm1325) mutant at 50 uM
Caenorhabditis elegans [10] = test: Effect on life span of diet restricted Caenorhabditis elegans N2 at 50 uM
Caenorhabditis elegans [11] = test: Effect on life span of Caenorhabditis elegans ser3(ok2007) mutant at 50 uM
Caenorhabditis elegans [12] = test: Effect on life span of Caenorhabditis elegans eat2(ad1116) mutant at 50 uM
Caenorhabditis elegans [13] = test: Effect on life span of Caenorhabditis elegans at 10 uM
Caenorhabditis elegans [14] = test: Effect on life span of Caenorhabditis elegans ser3 mutant at 250 uM
Caenorhabditis elegans [15] = test: Effect on life span of Caenorhabditis elegans N2 at 10 uM
Caenorhabditis elegans [16] = test: Effect on life span of Caenorhabditis elegans daf16 mutant at 10 uM
Caenorhabditis elegans [17] = test: Effect on life span of Caenorhabditis elegans daf2 mutant at 10 uM
Caenorhabditis elegans [18] = test: Effect on life span of Caenorhabditis elegans mod5 mutant at 10 uM
Caenorhabditis elegans [19] = test: Effect on life span of Caenorhabditis elegans ser3 mutant at 10 uM
Caenorhabditis elegans [20] = test: Effect on life span of Caenorhabditis elegans N2 treated on day 5 at 10 uM
Caenorhabditis elegans [21] = test: Effect on life span of Caenorhabditis elegans ser7 mutant at 10 uM
Caenorhabditis elegans [22] = test: Effect on life span of Caenorhabditis elegans ser4 mutant at 10 uM
Caenorhabditis elegans [23] = test: Effect on life span of Caenorhabditis elegans clk1 mutant at 10 uM
Caenorhabditis elegans [24] = test: Effect on life span of Caenorhabditis elegans ser1 mutant at 10 uM
Caenorhabditis elegans [25] = test: Effect on life span of Caenorhabditis elegans mod1 mutant at 10 uM
Caenorhabditis elegans [26] = test: Effect on life span of Caenorhabditis elegans ser2 mutant at 10 uM
Caenorhabditis elegans [27] = test: Effect on life span of Caenorhabditis elegans tph1 mutant at 10 uM
Caenorhabditis elegans [28] = test: Effect on life span of Caenorhabditis elegans eat2 mutant at 10 uM
Caenorhabditis elegans [29] = test: Effect on life span of Caenorhabditis elegans N2 treated on day 1 at 200 uM
Caenorhabditis elegans [30] = test: Effect on life span of Caenorhabditis elegans N2 from L1 stage at 2 uM
Caenorhabditis elegans [31] = test: Effect on life span of Caenorhabditis elegans ser3(ad1774) mutant at 50 uM
Caenorhabditis elegans [32] = test: Effect on life span of Caenorhabditis elegans clk1([…]) mutant at 50 uM
Caenorhabditis elegans [33] = test: Effect on life span of Caenorhabditis elegans ser1(ok345) mutant at 50 uM
Caenorhabditis elegans [34] = test: Effect on life span of Caenorhabditis elegans mod5(n3314) mutant at 50 uM
Caenorhabditis elegans [35] = test: Effect on life span of Caenorhabditis elegans ser4 mutant at 50 uM
Caenorhabditis elegans [36] = test: Effect on life span of Caenorhabditis elegans N2 from L1 stage at 100 uM
Caenorhabditis elegans [37] = test: Effect on life span of Caenorhabditis elegans N2 at 250 uM
Caenorhabditis elegans [38] = test: Effect on life span of Caenorhabditis elegans mod1 mutant at 50 uM
Caenorhabditis elegans [39] = test: Effect on life span of Caenorhabditis elegans daf2(e1370) mutant at 50 uM
Caenorhabditis elegans [40] = test: Effect on life span of Caenorhabditis elegans ser3 mutant at 50 uM
Caenorhabditis elegans [41] = test: Effect on life span of Caenorhabditis elegans ser2 mutant at 50 uM
Caenorhabditis elegans [42] = test: Effect on life span of Caenorhabditis elegans tph1 mutant at 250 uM
Caenorhabditis elegans [43] = test: Effect on life span of Caenorhabditis elegans daf16 mutant at 50 uM
Caenorhabditis elegans [44] = test: Effect on life span of Caenorhabditis elegans mod5 mutant at 50 uM
Caenorhabditis elegans [45] = test: Effect on life span of Caenorhabditis elegans N2 treated on day 1 at 100 uM
Caenorhabditis elegans [46] = test: Effect on life span of Caenorhabditis elegans ser4 mutant at 250 uM
Caenorhabditis elegans [47] = test: Effect on life span of Caenorhabditis elegans ser7 mutant at 50 uM
Caenorhabditis elegans [48] = test: Effect on life span of Caenorhabditis elegans daf2 mutant at 50 uM
Caenorhabditis elegans [49] = test: Effect on life span of Caenorhabditis elegans N2 at 2 uM
Caenorhabditis elegans [50] = test: Effect on life span of Caenorhabditis elegans N2 at 50 uM
Caenorhabditis elegans [51] = test: Effect on life span of Caenorhabditis elegans N2 from L1 stage at 50 uM
Caenorhabditis elegans [52] = test: Effect on life span of Caenorhabditis elegans tph1 mutant at 50 uM
Caenorhabditis elegans [53] = test: Effect on life span of Caenorhabditis elegans clk1 mutant at 50 uM
Caenorhabditis elegans [54] = test: Effect on life span of Caenorhabditis elegans mod1(ok103) mutant at 50 uM
Caenorhabditis elegans [55] = test: Effect on life span of Caenorhabditis elegans N2 from L1 stage at 200 uM
Caenorhabditis elegans [56] = test: as §1; remark: listed apart in the source
Caenorhabditis elegans [57] = test: Effect on life span of Caenorhabditis elegans eat2 mutant at 50 uM
Caenorhabditis elegans [58] = test: Effect on life span of Caenorhabditis elegans ser2(pk1357) mutant at 50 uM
Caenorhabditis elegans [59] = test: Effect on life span of Caenorhabditis elegans tph(mg280) mutant at 50 uM
Caenorhabditis elegans [60] = test: Effect on life span of Caenorhabditis elegans ser1 mutant at 50 uM
Caenorhabditis elegans [61] = test: Effect on life span of Caenorhabditis elegans N2 treated on day 1 at 2 uM
Caenorhabditis elegans [62] = test: Effect on life span of Caenorhabditis elegans N2 from L1 stage at 10 uM
Caenorhabditis elegans [63] = test: Effect on life span of Caenorhabditis elegans ser3 mutant at 2 uM
Caenorhabditis elegans [64] = test: Effect on life span of Caenorhabditis elegans ser4 mutant at 2 uM
Caenorhabditis elegans [65] = test: Effect on life span of Caenorhabditis elegans N2 treated on day 1 at 10 uM
Caenorhabditis elegans [66] = test: Effect on life span of Caenorhabditis elegans at 250 uM
Caenorhabditis elegans [67] = test: Effect on life span of Caenorhabditis elegans at 1000 uM
Caenorhabditis elegans [68] = test: Effect on life span of Caenorhabditis elegans at 3000 uM

Structure (SMILES): COc1ccccc1N1CCN(CCCCN2C(=O)CCC2=O)CC1
- Activity (Caenorhabditis elegans [1]): -4%
- Activity (Caenorhabditis elegans [2]): 6%

Structure (SMILES): O=C1CC(c2cccc([N+](=O)[O-])c2)CC2=C1C(c1ccccc1)Nc1ccccc1N2 (centres undefined)
- Activity (Caenorhabditis elegans [3]): 20%

Structure (SMILES): CCCN(CCC)C1CCc2cccc(O)c2C1 (centres undefined) [8-OH-DPAT]
- Activity (Caenorhabditis elegans [1]): 8%
- Activity (Caenorhabditis elegans [2]): 3%
- Activity (Caenorhabditis elegans [4]): -13%

Structure (SMILES): Clc1cccc(N2CCNCC2)c1 [CHLOROPHENYLPIPERAZINE]
- Activity (Caenorhabditis elegans [2]): -26%

Structure (SMILES): CN1CCC(=C2c3ccccc3C=Cc3ccccc32)CC1 [CYPROHEPTADINE]
- Activity (Caenorhabditis elegans [5]): 7%
- Activity (Caenorhabditis elegans [1]): 17%
- Activity (Caenorhabditis elegans [6]): 33%
- Activity (Caenorhabditis elegans [7]): 6%
- Activity (Caenorhabditis elegans [8]): 16%
- Activity (Caenorhabditis elegans [9]): 54%
- Activity (Caenorhabditis elegans [2]): 19%
- Activity (Caenorhabditis elegans [10]): 9%
- Activity (Caenorhabditis elegans [11]): -4%
- Activity (Caenorhabditis elegans [12]): 4%

Structure (SMILES): CNCCCN1c2ccccc2CCc2ccccc21 [DESIPRAMINE]
- Activity (Caenorhabditis elegans [13]): -6%
- Activity (Caenorhabditis elegans [2]): -2%
- Activity (Caenorhabditis elegans [4]): 3%

Structure (SMILES): c1cc2c(c(N3CCNCC3)c1)OCCO2 [ELTOPRAZINE]
- Activity (Caenorhabditis elegans [1]): -8%
- Activity (Caenorhabditis elegans [2]): -12%

Structure (SMILES): CNCCC(Oc1ccc(C(F)(F)F)cc1)c1ccccc1 (centres undefined) [FLUOXETINE]
- Activity (Caenorhabditis elegans [1]): -11%
- Activity (Caenorhabditis elegans [2]): -12%
- Activity (Caenorhabditis elegans [4]): -48%

Structure (SMILES): CN(C)Cc1c[nH]c2ccccc12 [GRAMINE]
- Activity (Caenorhabditis elegans [13]): 3%
- Activity (Caenorhabditis elegans [2]): 2%

Structure (SMILES): CN(C)CCCN1c2ccccc2CCc2ccccc21 [IMIPRAMINE]
- Activity (Caenorhabditis elegans [13]): -3%
- Activity (Caenorhabditis elegans [2]): -1%
- Activity (Caenorhabditis elegans [4]): -2%

Structure (SMILES): O=C1c2ccccc2S(=O)(=O)N1CCCCN1CCN(c2ncccn2)CC1 [IPSAPIRONE]
- Activity (Caenorhabditis elegans [1]): 0%
- Activity (Caenorhabditis elegans [2]): 3%

Structure (SMILES): CSc1ccc2c(c1)C(N1CCN(C)CC1)Cc1ccccc1S2 (centres undefined) [METITEPINE]
- Activity (Caenorhabditis elegans [14]): -1%
- Activity (Caenorhabditis elegans [15]): 25%
- Activity (Caenorhabditis elegans [16]): 10%
- Activity (Caenorhabditis elegans [17]): 21%
- Activity (Caenorhabditis elegans [18]): 8%
- Activity (Caenorhabditis elegans [19]): -9%
- Activity (Caenorhabditis elegans [20]): -1%
- Activity (Caenorhabditis elegans [21]): 40%
- Activity (Caenorhabditis elegans [13]): 25%
- Activity (Caenorhabditis elegans [22]): 8%
- Activity (Caenorhabditis elegans [23]): 10%
- Activity (Caenorhabditis elegans [24]): 38%
- Activity (Caenorhabditis elegans [25]): 21%
- Activity (Caenorhabditis elegans [26]): 17%
- Activity (Caenorhabditis elegans [27]): -2%
- Activity (Caenorhabditis elegans [28]): -3%

Structure (SMILES): CN1CCN2c3ccccc3Cc3ccccc3C2C1 (centres undefined) [MIANSERIN]
- Activity (Caenorhabditis elegans [29]): -4%
- Activity (Caenorhabditis elegans [30]): 8%
- Activity (Caenorhabditis elegans [31]): 3%
- Activity (Caenorhabditis elegans [32]): 3%
- Activity (Caenorhabditis elegans [33]): 38%
- Activity (Caenorhabditis elegans [14]): -1%
- Activity (Caenorhabditis elegans [5]): 6%
- Activity (Caenorhabditis elegans [34]): 2%
- Activity (Caenorhabditis elegans [35]): 7%
- Activity (Caenorhabditis elegans [15]): 31%
- Activity (Caenorhabditis elegans [36]): -4%
- Activity (Caenorhabditis elegans [37]): -17%
- Activity (Caenorhabditis elegans [19]): -2%
- Activity (Caenorhabditis elegans [38]): 29%
- Activity (Caenorhabditis elegans [39]): 11%
- Activity (Caenorhabditis elegans [40]): -5%
- Activity (Caenorhabditis elegans [41]): 19%
- Activity (Caenorhabditis elegans [42]): -1%
- Activity (Caenorhabditis elegans [43]): 12%
- Activity (Caenorhabditis elegans [44]): 14%
- Activity (Caenorhabditis elegans [6]): 31%
- Activity (Caenorhabditis elegans [45]): 13%
- Activity (Caenorhabditis elegans [7]): 14%
- Activity (Caenorhabditis elegans [46]): -20%
- Activity (Caenorhabditis elegans [8]): 7%
- Activity (Caenorhabditis elegans [47]): 50%
- Activity (Caenorhabditis elegans [48]): 16%
- Activity (Caenorhabditis elegans [49]): 19%
- Activity (Caenorhabditis elegans [50]): 48%
- Activity (Caenorhabditis elegans [51]): 10%
- Activity (Caenorhabditis elegans [52]): 10%
- Activity (Caenorhabditis elegans [53]): 10%
- Activity (Caenorhabditis elegans [54]): 25%
- Activity (Caenorhabditis elegans [55]): 5%
- Activity (Caenorhabditis elegans [9]): 60%
- Activity (Caenorhabditis elegans [56]): 1%
- Activity (Caenorhabditis elegans [2]): 25%
- Activity (Caenorhabditis elegans [10]): 4%
- Activity (Caenorhabditis elegans [11]): -2%
- Activity (Caenorhabditis elegans [57]): -4%
- Activity (Caenorhabditis elegans [58]): 19%
- Activity (Caenorhabditis elegans [59]): 0%
- Activity (Caenorhabditis elegans [60]): 53%
- Activity (Caenorhabditis elegans [61]): 13%
- Activity (Caenorhabditis elegans [62]): 9%
- Activity (Caenorhabditis elegans [63]): -3%
- Activity (Caenorhabditis elegans [64]): 6%
- Activity (Caenorhabditis elegans [12]): 2%
- Activity (Caenorhabditis elegans [65]): 18%

Structure (SMILES): CN1CCN2c3ncccc3Cc3ccccc3C2C1 (centres undefined) [MIRTAZAPINE]
- Activity (Caenorhabditis elegans [1]): 5%
- Activity (Caenorhabditis elegans [2]): 20%

Structure (SMILES): COc1ccccc1N1CCN(CCCCN2C(=O)c3ccccc3C2=O)CC1 [NAN-190]
- Activity (Caenorhabditis elegans [1]): 2%
- Activity (Caenorhabditis elegans [2]): -11%

Structure (SMILES): Fc1ccc([C@@H]2CCNC[C@H]2COc2ccc3c(c2)OCO3)cc1 [PAROXETINE]
- Activity (Caenorhabditis elegans [2]): -42%
- Activity (Caenorhabditis elegans [66]): -76%

Structure (SMILES): N[C@@H](Cc1ccccc1)C(=O)O [PHENYLALANINE]
- Activity (Caenorhabditis elegans [2]): -1%
- Activity (Caenorhabditis elegans [4]): -2%

Structure (SMILES): NCCc1c[nH]c2ccc(O)cc12 [SEROTONIN]
- Activity (Caenorhabditis elegans [67]): -8%
- Activity (Caenorhabditis elegans [68]): -6%

Structure (SMILES): CN[C@H]1CC[C@@H](c2ccc(Cl)c(Cl)c2)c2ccccc21 [SERTRALINE]
- Activity (Caenorhabditis elegans [2]): -76%
- Activity (Caenorhabditis elegans [66]): -80%
